From patent US8338450B2, “Compounds as dipeptidyl peptidase IV (DPP IV) inhibitors” (Lupin Limited, priority 2007, dated 2012)
Counter-ions that a name gives are not always drawn.

These molecules were tested against T1, human recombinant DPP-IV (Homo sapiens, UniProt P27487) (assay: Inhibition of human recombinant DPP-IV (Gly-Pro-AMC hydrolysis, fluorometric)). Conditions: compound 10 nM; relative to vehicle controls.
T1 construct: purchased R&D Systems, USA (or produced in-house)
T1 sequence (P27487 whole entry): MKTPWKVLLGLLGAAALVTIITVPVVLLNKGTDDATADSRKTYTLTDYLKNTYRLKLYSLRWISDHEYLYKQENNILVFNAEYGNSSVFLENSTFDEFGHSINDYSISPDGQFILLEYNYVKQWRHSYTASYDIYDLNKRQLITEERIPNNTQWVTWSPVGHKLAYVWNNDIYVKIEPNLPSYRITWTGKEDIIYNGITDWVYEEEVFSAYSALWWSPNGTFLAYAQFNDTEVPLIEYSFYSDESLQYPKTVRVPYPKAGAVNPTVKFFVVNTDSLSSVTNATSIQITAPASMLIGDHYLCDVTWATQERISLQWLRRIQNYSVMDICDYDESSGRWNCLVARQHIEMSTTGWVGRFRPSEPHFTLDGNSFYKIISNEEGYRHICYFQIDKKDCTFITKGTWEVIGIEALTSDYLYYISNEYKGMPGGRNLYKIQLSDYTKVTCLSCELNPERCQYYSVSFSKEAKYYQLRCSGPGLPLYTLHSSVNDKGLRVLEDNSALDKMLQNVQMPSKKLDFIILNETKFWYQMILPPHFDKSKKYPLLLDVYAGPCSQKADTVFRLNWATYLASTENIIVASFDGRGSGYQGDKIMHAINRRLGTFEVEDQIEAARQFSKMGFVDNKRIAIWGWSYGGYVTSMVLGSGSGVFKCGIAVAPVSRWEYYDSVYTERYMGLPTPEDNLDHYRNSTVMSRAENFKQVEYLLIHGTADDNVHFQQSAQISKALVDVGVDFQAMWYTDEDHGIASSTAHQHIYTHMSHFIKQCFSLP
Assay type: biochemical
Description: Inhibition of Human Recombinant DPP-IV
The proteolytic activity of human recombinant DPP-IV was determined by following the hydrolysis of Gly-Pro-7-amino-4-methylcoumarin (Gly-Pro-AMC) and the fluorometric quantitation of the liberated AMC. Assays were routinely carried out in 96-well flat-bottom black microwell plates. The reaction mixture (100 μl) contained 10 ng of human recombinant DPP-IV enzyme (produced in-house or procured from R&D Systems, USA) in the assay buffer (25 mM Tris-HCl, pH 7.4, 140 mM NaCl, 10 mM KCl and 0.1 mg/ml BSA) and 50 μM Gly-Pro-AMC. After incubation of assay plates at 30° C. for 30 min, the hydrolysis of Gly-Pro-AMC was monitored in a fluorescence microplate reader (Molecular Devices SpectraMax M5), with excitation and emission wavelengths set at 360 nm and 460 nm, respectively.
The inhibition of DPP-IV activity by test compounds was routinely performed by preincubating the enzyme with test compound (10 and 100 nM for primary screening and 8 concentrations from 0.1 to 1000 nM for the dose-response study) or vehicle (0.01% DMSO) for 15 min at 30° C., in a total volume of 90 μl. Test compounds were dissolved in DMSO at a concentration of 10 mM and serially diluted further in assay buffer. The enzyme reaction was initiated by the addition of Gly-Pro-AMC, followed by incubation of assay plates for 30 min at 30° C. and the liberated AMC was measured as described above. A known inhibitor of DPP-IV (positive control) was always included in the assay. Test compounds at various concentrations were always evaluated in duplicate, along with substrate blanks, vehicle controls and positive controls.
The results are expressed as percent inhibition of the enzyme activity relative to vehicle controls. Dose-response studies were conducted for those compounds exerting ≧50% inhibition of activity at 10 nM in primary screening. IC50, defined as the inhibitor concentration which caused a 50% decrease of the activity under assay conditions, was computed using GraphPad Prism software, version 5.0.
The DPP-IV inhibition data (expressed either as IC50 in nanomolar or percent inhibition at a particular compound concentration) is presented in Table 1.
In the case of `N#C[C@@H]1C[C@@H]2C[C@@H]2N1C(=O)[C@@H](N)C1CC2CCC(C1)N2CC1CCCCC1.O=C(O)C(F)(F)F` (stereo partly drawn) [Compound 48, (1S,3S,5S)-2-{(2S)-2-Amino-2-[8-(cyclohexylmethyl)-8-aza-bicyclo[3.2.1]oct-3-yl]-exo-ethanoyl}-2-azabicyclo-[3.1.0]hexane-3-carbonitrile trifluoroacetic acid salt], the “% inhibition at 10 nM” value is reported as 22% inhibition at 10 nM. For `COc1ccccc1NC(=S)N1C2CCC1CC([C@H](N)C(=O)N1[C@H](C#N)C[C@@H]3C[C@@H]31)C2.O=C(O)C(F)(F)F` (stereo partly drawn) [Compound 68, (1S,3S,5S)-2-{(2S)-2-Amino-2-[8-(2-methoxyphenylthiocarbamoyl)-8-aza-bicyclo[3.2.1]oct-3-yl]-exo-ethanoyl}-2-azabicyclo[3.1.0]-hexane-3-carbonitrile trifluoroacetic acid salt], the “% inhibition at 10 nM” value was 16% inhibition at 10 nM. For `N#C[C@@H]1C[C@@H]2C[C@@H]2N1C(=O)[C@@H](N)C1CC2CCC(C1)N2C(=O)NS(=O)(=O)c1ccc(Cl)cc1.O=C(O)C(F)(F)F` (stereo partly drawn) [Compound 61, (1S,3S,5S)-2-{(2S)-2-Amino-2-[8-(4-chlorophenylsulfonylcarbamoyl)-8-aza-bicyclo[3.2.1]oct-3-yl]-exo-ethanoyl}-2-azabicyclo[3.1.0]hexane-3-carbonitrile trifluoroacetic acid salt], the “% inhibition at 10 nM” value was 9% inhibition at 10 nM. For `N#C[C@@H]1C[C@@H]2C[C@@H]2N1C(=O)[C@@H](N)C1CC2CCC(C1)N2C(=O)C1CCCCC1.O=C(O)C(F)(F)F` (stereo partly drawn) [Compound 58, (1S,3S,5S)-2-{(2S)-2-Amino-2-[8-(cyclohexane-carbonyl)-8-aza-bicyclo[3.2.1]oct-3-yl]-exo-ethanoyl}-2-azabicyclo[3.1.0]hexane-3-carbonitrile trifluoroacetic acid salt], the “% inhibition at 10 nM” value was 31% inhibition at 10 nM.

Same assay, conditions: compound 100 nM; relative to vehicle controls
`N#C[C@@H]1C[C@@H]2C[C@@H]2N1C(=O)[C@@H](N)C1CC2CCC(C1)N2CC12CC3CC(CC(C3)C1)C2.O=C(O)C(F)(F)F` (stereo partly drawn) [Compound 49, (1S,3S,5S)-2-{(2S)-2-Amino-2-[8-(adamantan-1-ylmethyl)-8-aza-bicyclo[3.2.1]oct-3-yl]-exo-ethanoyl}-2-azabicyclo[3.1.0]hexane-3-carbonitrile trifluoroacetic acid salt] was tested, and the “% inhibition at 100 nM” value was 60% inhibition at 100 nM. `N#C[C@H]1C[C@H]2C[C@H]2N1C(=O)[C@H](N)C1CC2CCC(C1)N2C(=O)c1cnccn1.O=C(O)C(F)(F)F` (stereo partly drawn) [Compound 38, (1R,3R,5R)-2-{(2R)-2-Amino-2-[8-(pyrazin-2-carbonyl)-8-aza-bicyclo[3.2.1]oct-3-yl]-exo-ethanoyl}-2-azabicyclo[3.1.0]hexane-3-carbonitrile trifluoroacetic acid salt] was tested, and the “% inhibition at 100 nM” value was 16% inhibition at 100 nM. In the case of `N#C[C@@H]1C[C@@H]2C[C@@H]2N1C(=O)[C@@H](N)C1CC2CCC(C1)N2C(=O)C12CC3CC(CC(C3)C1)C2.O=C(O)C(F)(F)F` (stereo partly drawn) [Compound 43, (1S,3S,5S)-2-{(2S)-2-Amino-2-[8-(adamantane-1-carbonyl)-8-aza-bicyclo[3.2.1]oct-3-yl]-exo-ethanoyl}-2-azabicyclo[3.1.0]hexane-3-carbonitrile trifluoroacetic acid salt], the “% inhibition at 100 nM” value is reported as 49% inhibition at 100 nM.

Same assay, conditions: compound 1000 nM; relative to vehicle controls
For `NC(=O)[C@@H]1CCCN1C(=O)[C@@H](N)C1CC2CCC(C1)N2C(=O)c1ccc(C(F)(F)F)cc1.O=C(O)C(F)(F)F` (stereo partly drawn) [Compound 12, (2S)-1-{(2S)-2-amino-2-[8-(4-trifluoromethyl-benzoyl)-8-aza-bicyclo[3.2.1]-oct-3-yl]-exo-ethanoyl}-pyrrolidin-2-carboxamide trifluoroacetic acid salt], the “% inhibition at 1000 nM” value was 30% inhibition at 1000 nM.

Same assay, conditions: human recombinant DPP-IV, 50 μM Gly-Pro-AMC, 30 min at 30° C.
With `N#C[C@@H]1C[C@@H]2C[C@@H]2N1C(=O)[C@@H](N)C1CC2CCC(C1)N2C(=O)c1cccnc1` (stereo partly drawn) [Compound 33, (1S,3S,5S)-2-{(2S)-2-Amino-2-[8-(pyridine-3-carbonyl)-8-aza-bicyclo[3.2.1]oct-3-yl]-exo-ethanoyl}-2-azabicyclo[3.1.0]hexane-3-carbonitrile di trifluoroacetic acid salt] the IC50 was 9.43 nM. `N#Cc1ccc(N2C3CCC2CC([C@H](N)C(=O)N2[C@H](C#N)C[C@@H]4C[C@@H]42)C3)nc1` (stereo partly drawn) [Compound 51, (1S,3S,5S)-2-{(2S)-2-Amino-2-[8-(5-cyanopyridine-2-yl)-8-aza-bicyclo[3.2.1]oct-3-yl]-exo-ethanoyl}-2-azabicyclo[3.1.0]hexane-3-carbonitrile trifluoroacetic acid salt] gave an IC50 of 9.6 nM. Molecule `N#C[C@@H]1C[C@H](F)CN1C(=O)[C@@H](N)C1CC2CCC(C1)N2Cc1cc(F)c(F)cc1F` (stereo partly drawn) [Compound 19, (2S,4S)-1-{(2S)-2-Amino-2-[8-(2,4,5-trifluorobenzyl)-8-aza-bicyclo[3.2.1]oct-3-yl]-exo-ethanoyl}-4-fluoro-pyrrolidin-2-carbonitrile trifluoroacetic acid salt] has an IC50 of 6.25 nM. Molecule `N#C[C@@H]1C[C@@H]2C[C@@H]2N1C(=O)[C@@H](N)C1CC2CCC(C1)N2C(=O)Cc1ccncc1` (stereo partly drawn) [Compound 54, (1S,3S,5S)-2-{(2S)-2-Amino-2-[8-(2-pyridin-4-yl-acetyl)-8-aza-bicyclo[3.2.1]oct-3-yl]-exo-ethanoyl}-2-azabicyclo[3.1.0]hexane-3-carbonitrile di trifluoroacetic acid salt] has an IC50 of 3.3 nM. Molecule `N#C[C@@H]1C[C@@H]2C[C@@H]2N1C(=O)[C@@H](N)C1CC2CCC(C1)N2C(=O)c1ccc2c(c1)OCO2` (stereo partly drawn) [Compound 44, (1S,3S,5S)-2-{(2S)-2-Amino-2-[8-(benzo[1,3]-dioxole-5-carbonyl)-8-aza-bicyclo[3.2.1]oct-3-yl]-exo-ethanoyl}-2-azabicyclo[3.1.0]-hexane-3-carbonitrile trifluoroacetic acid salt] has an IC50 of 2.4 nM. Work on `N#C[C@@H]1CCCN1C(=O)[C@@H](N)C1CC2CCC(C1)N2C(=O)Nc1ccc(C(F)(F)F)cc1` (stereo partly drawn) [Compound 22, (2S)-1-{(2S)-2-Amino-2-[8-(4-trifluoromethylphenylcarbamoyl)-8-aza-bicyclo[3.2.1]oct-3-yl]exo-ethanoyl}-pyrrolidin-2-carbonitrile trifluoroacetic acid salt] yielded an IC50 of 2.83 nM. With `N#C[C@@H]1CCCN1C(=O)[C@@H](N)C1CC2CCC(C1)N2C(=O)C12CC3CC(CC(C3)C1)C2` (stereo partly drawn) [Compound 3, (2S)-1-{(2S)-2-Amino-2-[8-(adamantane-1-carbonyl)-8-aza-bicyclo[3.2.1]oct-3-yl]-exo-ethanoyl}-pyrrolidin-2-carbonitrile trifluoroacetic acid salt] the IC50 was 6.67 nM. In the case of `N#C[C@@H]1CCCN1C(=O)[C@@H](N)C1CC2CCC(C1)N2C(=O)c1cc(F)ccc1F` (stereo partly drawn) [Compound 6, (2S)-1-{(2S)-2-Amino-2-[8-(2,5-difluorobenzoyl)-8-aza-bicyclo[3.2.1]oct-3-yl]-exo-ethanoyl}-pyrrolidin-2-carbonitrile trifluoroacetic acid salt], the IC50 is reported as 2.3 nM. Molecule `N#C[C@@H]1CCCN1C(=O)[C@@H](N)C1CC2CCC(C1)N2C(=O)c1ccnc(F)c1` (stereo partly drawn) [Compound 7, (2S)-1-{(2S)-2-Amino-2-[8-(2-fluoro-pyridine-4-carbonyl)-8-aza-bicyclo[3.2.1]oct-3-yl]-exo-ethanoyl}-pyrrolidin-2-carbonitrile trifluoroacetic acid salt] has an IC50 of 1.9 nM. Work on `N#C[C@@H]1CCCN1C(=O)[C@@H](N)C1CC2CCC(C1)N2Cc1cc(F)c(F)cc1F` (stereo partly drawn) [Compound 9, (2S)-1-{(2S)-2-Amino-2-[8-(2,4,5-trifluorobenzyl)-8-aza-bicyclo[3.2.1]oct-3-yl]-exo-ethanoyl}-pyrrolidin-2-carbonitrile trifluoroacetic acid salt] yielded an IC50 of 3.13 nM. Molecule `N[C@H](C(=O)N1CCSC1)C1CC2CCC(C1)N2C(=O)c1ccc(C(F)(F)F)cc1` (stereo partly drawn) [Compound 21, 3-{(2S)-2-Amino-2-[8-(4-trifluoromethyl-benzoyl)-8-aza-bicyclo[3.2.1]-oct-3-yl]-exo-ethanoyl}-1,3-thiazolidin trifluoroacetic acid salt] has an IC50 of 17.9 nM.

Same assay, conditions: read-out: % inhibition at 10 nM
`N[C@H](C(=O)N1CC(F)C1)C1CC2CCC(C1)N2C(=O)c1ccncc1F` (stereo partly drawn) [Compound 62, {(2S)-2-Amino-2-[8-(3-fluoropyridine-4-carbonyl)-8-aza-bicyclo[3.2.1]-oct-3-yl]-exo-ethanoyl}-3-fluoroazetidine trifluoroacetic acid salt] was tested, and the inhibition at 0.01 µM was 12%.

Same assay, conditions: read-out: % inhibition at 1000 nM
Work on `N[C@H](C(=O)N1CCC[C@H]1C(=O)O)C1CC2CCC(C1)N2C(=O)c1ccc(C(F)(F)F)cc1` (stereo partly drawn) [Compound 11, (2S)-1-{(2S)-2-amino-2-[8-(4-trifluoromethyl-benzoyl)-8-aza-bicyclo[3.2.1]-oct-3-yl]-exo-ethanoyl}-pyrrolidin-2-carboxylic acid trifluoroacetic acid salt] yielded an inhibition at 1 µM of 29%.
